Like-named read-outs stand apart in the source and are kept apart here.
Tests used:
[1] = system: Zucker Fatty (ZF) rats; experiment: Oral carbohydrate loading test of Zucker Fatty rats: compound 3, voglibose and combination (plasma glucose and insulin); format: in vivo, rat
From the text: Four groups each containing 5 rats were formed. […] [table]

[2] = system: ZF rats

SMILES: OCC(CO)N[C@H]1C[C@](O)(CO)[C@@H](O)[C@H](O)[C@H]1O [voglibose, reference compound]
- suppression of increase in plasma glucose after oral carbohydrate loading, as compared to the vehicle group ([1]; male ZF rats, overnight fasted, compound 3 0.1 mg/kg and/or voglibose 0.1 mg/kg given 15 min before mixed carbohydrates 3.5 g/kg orally, area value over 60 min): 34%

SMILES: CN(C)C(=N)N=C(N)N [metformin, reference compound]
- suppression of increase in plasma glucose after oral carbohydrate loading, as compared to the vehicle group ([2]; male ZF rats, overnight fasted, compound 3 0.3 mg/kg and/or metformin 50 mg/kg given 15 min before mixed carbohydrates 3.5 g/kg orally, area value over 120 min): 13%

SMILES: Cc1cc(N2CCN([C@@H]3CN[C@H](C(=O)N4CCSC4)C3)CC2)n(-c2ccccc2)n1 [compound 3, 3-{(2S,4S)-4-[4-(3-methyl-1-phenyl-1H-pyrazol-5-yl)piperazin-1-yl]pyrrolidin-2-ylcarbonyl}thiazolidine]
- suppression of increase in plasma glucose after oral carbohydrate loading, as compared to the vehicle group ([1]; rat, in vivo): 33%
- increase of plasma insulin concentration as compared to the vehicle group ([1]; rat, in vivo, po, 0.1 mg/kg): about 3 fold
- suppression of increase in plasma glucose after oral carbohydrate loading, as compared to the vehicle group ([2]; rat, in vivo): 33%

— patent publication US8754032B2, “Concomitant pharmaceutical agents and use thereof” (Mitsubishi Tanabe Pharma Corporation, priority 2005, dated 2014)
